These results are taken from patent US6555586B2 (Wyeth, priority 1993, dated 2003).

The structures appear in SMILES notation.

In one assay the test system is dopamine reuptake. The settings on record: relative to serotonin and norepinephrine uptake; cited from earlier work.
The next assay deals with monoamine oxidase. As to conditions: cited from earlier work.
The subject of a further assay is norepinephrine uptake. The settings on record: cited from earlier work.
For assay [1], the system named is obesity in non-depressed outpatients. Description: Obesity Reduction Test: randomized double-blind comparison of venlafaxine and placebo capsules. Format: in vivo, humans. The procedure: A randomized double-blind comparison of venlafaxine and placebo capsules was tested as a treatment for obesity in non-depressed outpatients. […] Each participant in the comparison weighed more than 20%, but less than 100%, above the mean value for sex, height and bone structure according to the 1983 Metropolitan Height and Weight Table. The women in the comparison of childbearing potential received a negative pregnancy test result and agreed to use medically acceptable forms of contraception throughout the period covered by the comparison.
Subsequently the dose was increased from 50 mg/day to 150 mg/day through study day 14. On study day 15 the dose was increased to 225 mg/day (3 tablets 3 times a day) and this dose was continued for the remainder of the 70 day study. The patients in both groups were also given instructions to decrease their food intake by 20% and to increase their exercise by the same amount. These directives were given to standardize dietary instructions and to try to prevent patients from starting “crash” diets or exercise programs. A specific diet was not prescribed.
Comparisons within groups were performed on changes from baseline weight and body mass index. Body mass index was computed according to the following formula: [formula]

For another assay, the system named is histaminergic receptors. As to conditions: in vitro; cited from earlier work.
The subject of another assay is adrenergic receptors. As to conditions: in vitro; cited from earlier work.

For the molecule `COc1ccc(C(CN(C)C)C2(O)CCCCC2)cc1` (centres unmarked) [venlafaxine, 1-[2-(dimethylamino)-1-(4-methoxyphenyl)ethyl] cyclohexanol], the “inhibition of dopamine reuptake” value in the assay on dopamine reuptake was “To a lesser degree, venlafaxine also inhibits dopamine reuptake”. In the assay on monoamine oxidase, the “inhibitory activity on monoamine oxidase” value was “no inhibitory activity”. The “inhibition of norepinephrine uptake” value with norepinephrine uptake is “potent inhibition”. For the same molecule, the “mean weight decreases and mean percent decreases from baseline, significance” value in assay [1] (beginning at week 1) is “consistent statistically significant mean weight decreases and mean percent decreases from baseline beginning at week 1”. In assay [1] (week 10, venlafaxine up to 225 mg/day), the “mean percent decrease from baseline (body weight)” value was 3.6%. Moreover, in assay [1] (week 10, venlafaxine up to 225 mg/day, change from baseline), the “mean decrease in body weight” value is given as 7.5 lb. Further, the “affinity for histaminergic receptors” value with histaminergic receptors is on record as “virtually no affinity”. Moreover, the “affinity for adrenergic receptors” value with adrenergic receptors was “virtually no affinity”.
